# How the values were obtained:
# [1] = target: cAMP and cAMP-inhibited cGMP 3',5'-cyclic phosphodiesterase 10A (Homo sapiens, UniProt Q9Y233); assay: Inhibition of human recombinant PDE10A using [3H]-cAMP/[3H]-cGMP as substrate after 30 mins by radiometric assay
# [2] = Metabolic stability in rat liver microsomes assessed as compound remaining after 60 mins; format: ADME; conditions: read-out: Stability
# [3] = Metabolic stability in human liver microsomes assessed as compound remaining after 60 mins; format: ADME; conditions: read-out: Stability
# [4] = Ratio of drug level in brain to plasma in Sprague-Dawley rat at 10 mg/kg, po after 30 mins; format: ADME, organism-based; parameters: dose 10 mg/kg, route oral; conditions: brain and plasma, read-out: BPR
# [5] = Drug uptake in Sprague-Dawley rat brain at 10 mg/kg, po after 30 mins; format: ADME, organism-based; parameters: dose 10 mg/kg, route oral; conditions: read-out: Drug uptake
# [6] = Plasma concentration in Sprague-Dawley rat at 10 mg/kg, po after 30 mins; format: ADME, organism-based; parameters: dose 10 mg/kg, route oral
# [7] = system: Rattus norvegicus; assay: Antipsychotic activity in Sprague-Dawley rat psychosis model assessed as inhibition of MK-801-induced hyperlocomotion at 1 mg/kg, ip administered 5 mins prior to MK-801-challenge measured after 15 mins up to 1 hr; format: functional; conditions: route intraperitoneal
# [8] = target: cGMP-specific 3',5'-cyclic phosphodiesterase (Homo sapiens) (UniProt O76074); assay: Inhibition of PDE5A (unknown origin) using [3H]-cGMP as substrate at 10 uM after 30 mins by radiometric assay
# [9] = target: cGMP-dependent 3',5'-cyclic phosphodiesterase (Homo sapiens) (UniProt O00408); assay: Inhibition of PDE2A (unknown origin) using cAMP as substrate at 10 uM after 30 mins by HTRF method
# [10] = target: 3',5'-cyclic-AMP phosphodiesterase 4D (Homo sapiens) (UniProt Q08499); assay: Inhibition of PDE4D (unknown origin) using cAMP as substrate at 10 uM after 30 mins
# [11] = target: Dual 3',5'-cyclic-AMP and -GMP phosphodiesterase 11A (Homo sapiens) (UniProt Q9HCR9); assay: Inhibition of PDE11A (unknown origin) using [3H]-cAMP as substrate at 10 uM after 30 mins by radiometric assay
# [12] = species on record: Homo sapiens; assay: Selectivity ratio of IC50 for PDE8A (unknown origin) to IC50 for human recombinant PDE10A
# [13] = species on record: Homo sapiens; assay: Selectivity ratio of IC50 for PDE5A (unknown origin) to IC50 for human recombinant PDE10A
# [14] = target: High affinity cGMP-specific 3',5'-cyclic phosphodiesterase 9A (Homo sapiens) (UniProt O76083); assay: Inhibition of PDE9A2 (unknown origin) using [3H]-cGMP as substrate at 10 uM after 30 mins by radiometric assay
# [15] = species on record: Homo sapiens; assay: Selectivity ratio of IC50 for PDE11A (unknown origin) to IC50 for human recombinant PDE10A
# [16] = species on record: Homo sapiens; assay: Selectivity ratio of IC50 for PDE1A (unknown origin) to IC50 for human recombinant PDE10A
# [17] = target: cGMP-inhibited 3',5'-cyclic phosphodiesterase 3A (Homo sapiens) (UniProt Q14432); assay: Inhibition of PDE3A (unknown origin) using cAMP as substrate at 10 uM after 30 mins by HTRF method
# [18] = target: High affinity 3',5'-cyclic-AMP phosphodiesterase 7A (Homo sapiens) (UniProt Q13946); assay: Inhibition of PDE7A1 (unknown origin) using [3H]-cAMP as substrate at 10 uM after 30 mins by radiometric assay
# [19] = species on record: Homo sapiens; assay: Selectivity ratio of IC50 for PDE2A (unknown origin) to IC50 for human recombinant PDE10A
# [20] = species on record: Homo sapiens; assay: Selectivity ratio of IC50 for PDE7A1 (unknown origin) to IC50 for human recombinant PDE10A
# [21] = species on record: Homo sapiens; assay: Selectivity ratio of IC50 for PDE3A (unknown origin) to IC50 for human recombinant PDE10A
# [22] = species on record: Homo sapiens; assay: Selectivity ratio of IC50 for PDE4D (unknown origin) to IC50 for human recombinant PDE10A
# [23] = species on record: Homo sapiens; assay: Selectivity ratio of IC50 for PDE9A2 (unknown origin) to IC50 for human recombinant PDE10A
# [24] = target: High affinity cAMP-specific and IBMX-insensitive 3',5'-cyclic phosphodiesterase 8A (Homo sapiens) (UniProt O60658); assay: Inhibition of PDE8A (unknown origin) using [3H]-cAMP as substrate at 10 uM after 30 mins by radiometric assay
# cAMP and cAMP-inhibited cGMP 3',5'-cyclic phosphodiesterase 10A, sequence (Q9Y233 whole entry): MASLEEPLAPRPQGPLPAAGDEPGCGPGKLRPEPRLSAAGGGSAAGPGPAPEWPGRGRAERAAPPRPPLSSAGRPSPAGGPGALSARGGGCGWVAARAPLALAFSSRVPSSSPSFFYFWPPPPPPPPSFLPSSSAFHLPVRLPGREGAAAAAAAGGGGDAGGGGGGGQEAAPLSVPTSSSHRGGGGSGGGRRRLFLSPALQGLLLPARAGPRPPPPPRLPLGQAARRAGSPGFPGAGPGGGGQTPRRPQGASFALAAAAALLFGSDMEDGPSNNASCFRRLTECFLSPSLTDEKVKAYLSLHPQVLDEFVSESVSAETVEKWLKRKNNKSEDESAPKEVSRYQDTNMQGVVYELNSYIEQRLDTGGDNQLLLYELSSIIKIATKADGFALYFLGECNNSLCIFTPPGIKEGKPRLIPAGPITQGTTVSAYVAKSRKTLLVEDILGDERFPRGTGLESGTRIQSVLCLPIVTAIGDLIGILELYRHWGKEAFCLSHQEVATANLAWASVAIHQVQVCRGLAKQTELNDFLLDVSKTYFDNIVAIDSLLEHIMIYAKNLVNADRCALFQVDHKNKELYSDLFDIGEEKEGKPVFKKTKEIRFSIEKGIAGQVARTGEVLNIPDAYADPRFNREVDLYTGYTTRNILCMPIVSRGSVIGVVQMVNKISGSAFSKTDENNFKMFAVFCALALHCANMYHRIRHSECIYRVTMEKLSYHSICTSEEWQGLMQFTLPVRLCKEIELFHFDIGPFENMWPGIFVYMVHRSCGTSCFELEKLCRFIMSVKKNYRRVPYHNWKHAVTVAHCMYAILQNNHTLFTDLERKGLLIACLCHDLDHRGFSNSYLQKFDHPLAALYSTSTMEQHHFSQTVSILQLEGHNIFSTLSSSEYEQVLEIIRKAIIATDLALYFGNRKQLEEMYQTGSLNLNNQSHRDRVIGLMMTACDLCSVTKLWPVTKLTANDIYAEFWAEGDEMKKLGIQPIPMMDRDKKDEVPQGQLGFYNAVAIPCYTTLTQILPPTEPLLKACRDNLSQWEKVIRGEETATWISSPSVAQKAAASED
# cGMP-dependent 3',5'-cyclic phosphodiesterase (Homo sapiens), sequence (O00408 whole entry): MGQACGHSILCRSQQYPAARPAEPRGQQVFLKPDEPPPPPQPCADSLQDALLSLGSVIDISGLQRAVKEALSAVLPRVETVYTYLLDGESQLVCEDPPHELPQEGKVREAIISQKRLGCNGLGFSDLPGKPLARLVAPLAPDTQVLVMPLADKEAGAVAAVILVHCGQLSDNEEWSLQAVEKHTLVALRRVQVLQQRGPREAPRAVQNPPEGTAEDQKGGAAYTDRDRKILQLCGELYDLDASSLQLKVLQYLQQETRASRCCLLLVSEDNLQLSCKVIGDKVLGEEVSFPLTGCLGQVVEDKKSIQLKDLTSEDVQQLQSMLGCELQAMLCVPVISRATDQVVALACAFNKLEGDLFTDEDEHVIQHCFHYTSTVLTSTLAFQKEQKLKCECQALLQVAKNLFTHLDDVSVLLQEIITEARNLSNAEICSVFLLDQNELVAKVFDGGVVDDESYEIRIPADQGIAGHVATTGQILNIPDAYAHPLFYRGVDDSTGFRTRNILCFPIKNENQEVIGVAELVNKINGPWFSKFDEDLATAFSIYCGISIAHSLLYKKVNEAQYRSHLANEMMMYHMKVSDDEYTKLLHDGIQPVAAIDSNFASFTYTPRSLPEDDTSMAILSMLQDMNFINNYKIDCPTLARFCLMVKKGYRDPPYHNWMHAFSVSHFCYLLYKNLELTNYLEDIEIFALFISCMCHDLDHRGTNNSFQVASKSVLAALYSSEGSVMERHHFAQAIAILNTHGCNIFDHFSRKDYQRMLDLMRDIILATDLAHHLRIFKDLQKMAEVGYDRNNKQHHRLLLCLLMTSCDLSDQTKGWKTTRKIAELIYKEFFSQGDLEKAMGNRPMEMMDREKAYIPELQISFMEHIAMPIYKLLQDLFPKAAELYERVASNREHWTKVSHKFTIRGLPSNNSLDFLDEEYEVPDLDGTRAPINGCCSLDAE
# Dual 3',5'-cyclic-AMP and -GMP phosphodiesterase 11A (Homo sapiens), sequence (Q9HCR9 whole entry, looked up): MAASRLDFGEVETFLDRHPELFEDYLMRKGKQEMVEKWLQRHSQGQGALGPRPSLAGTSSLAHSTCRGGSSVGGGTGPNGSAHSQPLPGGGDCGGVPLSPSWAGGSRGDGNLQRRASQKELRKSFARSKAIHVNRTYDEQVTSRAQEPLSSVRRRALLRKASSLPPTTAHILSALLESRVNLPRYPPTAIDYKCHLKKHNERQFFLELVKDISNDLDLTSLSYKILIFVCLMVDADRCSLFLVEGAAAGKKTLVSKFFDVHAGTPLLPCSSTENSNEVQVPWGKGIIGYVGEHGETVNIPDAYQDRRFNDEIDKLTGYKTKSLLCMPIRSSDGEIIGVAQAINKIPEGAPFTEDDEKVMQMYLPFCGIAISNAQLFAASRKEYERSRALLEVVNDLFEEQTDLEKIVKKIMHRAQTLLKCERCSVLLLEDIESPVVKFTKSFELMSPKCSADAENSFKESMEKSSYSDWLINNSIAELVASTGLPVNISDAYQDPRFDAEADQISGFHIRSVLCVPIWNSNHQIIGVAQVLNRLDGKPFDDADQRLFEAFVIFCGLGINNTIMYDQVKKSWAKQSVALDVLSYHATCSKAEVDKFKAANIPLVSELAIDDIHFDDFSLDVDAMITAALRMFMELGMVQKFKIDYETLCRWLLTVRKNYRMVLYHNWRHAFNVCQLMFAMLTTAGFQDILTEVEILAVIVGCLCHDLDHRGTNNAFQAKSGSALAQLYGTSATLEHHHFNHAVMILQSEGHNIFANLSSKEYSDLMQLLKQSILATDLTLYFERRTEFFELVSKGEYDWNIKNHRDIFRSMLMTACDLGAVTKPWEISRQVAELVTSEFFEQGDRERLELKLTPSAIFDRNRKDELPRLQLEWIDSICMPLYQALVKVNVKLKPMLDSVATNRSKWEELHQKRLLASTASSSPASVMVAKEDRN
# High affinity 3',5'-cyclic-AMP phosphodiesterase 7A (Homo sapiens), sequence (Q13946 whole entry): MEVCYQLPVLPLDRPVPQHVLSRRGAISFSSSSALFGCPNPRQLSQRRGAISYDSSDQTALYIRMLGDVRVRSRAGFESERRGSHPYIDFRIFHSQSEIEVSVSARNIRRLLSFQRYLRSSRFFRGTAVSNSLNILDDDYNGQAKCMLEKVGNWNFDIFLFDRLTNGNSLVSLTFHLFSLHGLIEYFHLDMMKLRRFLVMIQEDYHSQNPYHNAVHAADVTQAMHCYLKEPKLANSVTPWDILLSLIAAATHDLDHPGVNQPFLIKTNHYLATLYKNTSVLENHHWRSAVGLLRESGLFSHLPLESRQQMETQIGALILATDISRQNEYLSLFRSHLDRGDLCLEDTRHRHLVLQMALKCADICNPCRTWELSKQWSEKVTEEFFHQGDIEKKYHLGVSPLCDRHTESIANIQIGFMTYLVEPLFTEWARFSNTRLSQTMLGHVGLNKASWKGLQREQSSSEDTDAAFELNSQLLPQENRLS
# 3',5'-cyclic-AMP phosphodiesterase 4D (Homo sapiens), sequence (Q08499 whole entry): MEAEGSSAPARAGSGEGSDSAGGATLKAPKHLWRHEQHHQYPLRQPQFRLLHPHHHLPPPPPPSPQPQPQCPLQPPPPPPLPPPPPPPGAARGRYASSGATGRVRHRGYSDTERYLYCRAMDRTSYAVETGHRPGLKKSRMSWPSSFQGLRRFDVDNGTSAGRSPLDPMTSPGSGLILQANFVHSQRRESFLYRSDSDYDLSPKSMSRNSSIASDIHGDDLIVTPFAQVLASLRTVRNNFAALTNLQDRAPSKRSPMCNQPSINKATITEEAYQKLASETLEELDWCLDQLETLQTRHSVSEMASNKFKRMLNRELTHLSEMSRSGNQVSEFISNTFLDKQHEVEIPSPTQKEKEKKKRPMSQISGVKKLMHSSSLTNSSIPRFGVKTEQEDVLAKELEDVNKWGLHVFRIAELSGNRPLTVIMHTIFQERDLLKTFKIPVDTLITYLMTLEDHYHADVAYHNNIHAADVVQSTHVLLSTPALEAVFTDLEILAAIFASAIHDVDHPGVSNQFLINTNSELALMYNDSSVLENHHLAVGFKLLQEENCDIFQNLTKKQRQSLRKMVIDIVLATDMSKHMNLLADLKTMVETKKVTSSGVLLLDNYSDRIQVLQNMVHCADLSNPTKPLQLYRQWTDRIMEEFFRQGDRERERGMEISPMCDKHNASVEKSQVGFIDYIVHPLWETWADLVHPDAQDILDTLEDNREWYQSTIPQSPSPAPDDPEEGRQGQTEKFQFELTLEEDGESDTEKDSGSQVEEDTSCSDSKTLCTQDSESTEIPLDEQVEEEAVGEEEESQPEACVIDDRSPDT
# High affinity cGMP-specific 3',5'-cyclic phosphodiesterase 9A (Homo sapiens), sequence (O76083 whole entry): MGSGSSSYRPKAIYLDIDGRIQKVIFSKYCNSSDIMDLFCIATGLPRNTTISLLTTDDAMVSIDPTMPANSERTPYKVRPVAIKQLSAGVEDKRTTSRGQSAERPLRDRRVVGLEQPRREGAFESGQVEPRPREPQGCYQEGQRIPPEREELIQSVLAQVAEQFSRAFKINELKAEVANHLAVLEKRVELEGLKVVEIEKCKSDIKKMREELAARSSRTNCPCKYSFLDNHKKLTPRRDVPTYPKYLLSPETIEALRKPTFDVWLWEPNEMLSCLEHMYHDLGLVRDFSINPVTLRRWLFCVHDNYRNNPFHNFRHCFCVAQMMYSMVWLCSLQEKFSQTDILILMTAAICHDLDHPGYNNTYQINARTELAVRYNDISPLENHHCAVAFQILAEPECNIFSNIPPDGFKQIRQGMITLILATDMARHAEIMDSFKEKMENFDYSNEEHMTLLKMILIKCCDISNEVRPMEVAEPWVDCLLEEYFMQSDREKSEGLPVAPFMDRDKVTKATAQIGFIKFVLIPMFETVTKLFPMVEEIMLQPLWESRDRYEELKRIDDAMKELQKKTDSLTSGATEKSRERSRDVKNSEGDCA
SMILES,IC50 [1],remaining at 1 h [2],remaining at 1 h [3],Kp at 0.5 h [4],concentration at 0.5 h [5],concentration at 0.5 h [6],further results
Cc1nc(C2CCOC2)n2c1sc1cc(OCc3ccc4ccccc4n3)ccc12 (configuration not stated),18.5 nM,37%,45%,–,–,–,–
Cc1nc(C2CNC2)n2c1sc1cc(OCc3ccc4ccccc4n3)ccc12,157 nM,80%,100%,–,–,–,–
Cc1nc([C@]23COC[C@H]2C3)n2c1sc1cc(OCc3ccc4ccccc4n3)ccc12,5.12 nM,70%,44%,1.86,732 ng/g,394 ng/mL,–
Cc1cc(-c2nc(C)c3sc4cc(OCc5ccc6ccccc6n5)ccc4n23)ccn1,8.73 nM,19%,5%,–,–,–,–
Cc1nc2n(c(=O)c1CCN1CCC(c3noc4cc(F)ccc34)CC1)CCCC2 [RISPERIDONE],–,–,–,–,–,–,inhibition in vivo at 1 mg/kg [7]: 72%
Cc1nc(-c2ccncc2)n2c1sc1cc(OCc3ccc4ccccc4n3)ccc12,4.85 nM,22%,5%,–,–,–,inhibition [8]: 34%; inhibition [9]: 67.2%; inhibition [10]: 27.1%; inhibition [11]: 21.4%; Ratio IC50 [12]: > 500; Ratio IC50 [13]: > 500; inhibition [14]: 22.8%; Ratio IC50 [15]: > 500; Ratio IC50 [16]: > 500; inhibition [17]: 26%; inhibition [18]: 42.3%; Ratio IC50 [19]: > 500; Ratio IC50 [20]: > 500; Ratio IC50 [21]: > 500; Ratio IC50 [22]: > 500; Ratio IC50 [23]: > 500; inhibition [24]: 0%
Cc1nc([C@@]23COC[C@@H]2C3)n2c1sc1cc(OCc3ccc4ccccc4n3)ccc12,6.88 nM,60%,37%,2.62,430 ng/g,164 ng/mL,–
CC(=O)N1CC(c2nc(C)c3sc4cc(OCc5ccc6ccccc6n5)ccc4n23)C1,6.73 nM,42%,50%,0.45,62 ng/g,137 ng/mL,–
Cc1nc(C)c(-c2nc(C)c3sc4cc(OCc5ccc6ccccc6n5)ccc4n23)s1,0.9 nM,20%,3%,–,–,–,–
Cc1nc(-c2ccnnc2)n2c1sc1cc(OCc3ccc4ccccc4n3)ccc12,13.9 nM,3%,30%,–,–,–,–
CC(=O)N1CCC(c2nc(C)c3sc4cc(OCc5ccc6ccccc6n5)ccc4n23)CC1,8.96 nM,48%,76%,0.42,165 ng/g,396 ng/mL,–
Cc1nc2sc3cc(OCc4ccc5ccccc5n4)ccc3n2c1-c1ccncc1,351 nM,–,–,–,–,–,–
c1ccc2nc(COc3ccc4c(c3)sc3nnc(-c5ccncc5)n34)ccc2c1,666 nM,–,–,–,–,–,–

# — ChEMBL document CHEMBL3091421, “Discovery of benzo[d]imidazo[5,1-b]thiazole as a new class of phosphodiesterase 10A inhibitors” (Bioorg Med Chem Lett, 2013)
